This note sets out measurements from patent US11912650B2, “Bakuchiol derivatives, pharmaceutically acceptable salts thereof, and preparation method and use of the same” (priority 2020, dated 2024).

One experiment deals with E. coli ATCC25922. Briefly: Antibacterial activity assay (broth dilution MIC). The note with it: Escherichia coli, 37° C., 24 h, compounds 38, 44-45, 58-61, 63-64 with 0.05% Tween 80. It counts as cell-based. On the procedure:
(§1) Antibacterial activity assay. The antibacterial activities of all the compounds were determined according to a broth dilution method specified in Clinical and Laboratory Standards Institute (CLSI) guidelines. Bacterial cells were inoculated on a Mueller-Hinton agar (MHA) plate for overnight culture, and the concentration of the bacterial cells was adjusted to about 1×10^6 colony-forming units (CFU)/mL with phosphate buffered saline (PBS). First, a 1000 μg/mL stock solution (a final concentration of dimethyl sulfoxide (DMSO) was ≤2%) was prepared by dissolving a sample in DMSO/H2O. Then, the stock solution was diluted with Mueller-Hinton Broth (MHB) to an initial concentration of 100 μg/mL, and the sample solution (100 μL) was subjected to two-fold gradient dilution with MHB in a 96-well plate, to obtain 100 μg/mL to 0.78 μg/mL serial dilutions. Then, a bacterial suspension (100 μL) was added to each well of the 96-well plate and mixed with the test sample solution (100 μL). Among them, test systems for compounds 38, 44-45, 58-61 and 63-64 contained 0.05% of Tween 80. Finally, the 96-well plate was incubated at 37° C. for 24 hours. Absorbances at 600 nm at 0 and 24 h were measured. An minimum inhibitory concentration (MIC) value was defined as the lowest concentration where no visible bacterial growth occurred. All experiments were carried out in at least two duplicates, and biological repeatability could be achieved.
On the technique in general: Dilution methods test growth across graded concentrations, often in twofold steps.

For another experiment, the system named is S. aureus ATCC29213. Description: Antibacterial activity assay (broth dilution MIC). It counts as cell-based. The following applies: Staphylococcus aureus, 37° C., 24 h, compounds 38, 44-45, 58-61, 63-64 with 0.05% Tween 80. The protocol: as §1
The next experiment concerns Gram-positive bacteria. Briefly: Antibacterial activity against Gram-positive bacteria (MIC summary). The note with it: 24 h, read-out: minimum inhibitory concentration (MIC) against Gram-positive bacteria. The class given is cell-based. The protocol: as §1
In the next experiment the test system is MRSA NCTC10442. Description: Antibacterial activity assay (broth dilution MIC). The note with it: Staphylococcus aureus, 37° C., 24 h, compounds 38, 44-45, 58-61, 63-64 with 0.05% Tween 80. It counts as cell-based, methicillin-resistant Staphylococcus aureus. On the procedure: as §1
A further experiment relates to MRSA N315. Briefly: Antibacterial activity assay (broth dilution MIC). The class given is cell-based, methicillin-resistant Staphylococcus aureus. The note with it: Staphylococcus aureus, 37° C., 24 h, compounds 38, 44-45, 58-61, 63-64 with 0.05% Tween 80. On the procedure: as §1

Values after ≈ are worked out from the molar mass of the structure shown. Read-outs that look alike come from different tables or passages of the source.

For the compound `C=C[C@@](C)(/C=C/c1ccc(OCCCCN(C)C)cc1)CCC=C(C)C` [Compound 5], the MIC against E. coli ATCC25922 is over 50 mg/L; against S. aureus ATCC29213, 1.56 mg/L (≈ 4.39 µM); with Gram-positive bacteria it was 0.39 to 3.12 mg/L (≈ 1.1 to 8.79 µM); against MRSA NCTC10442, 3.12 mg/L (≈ 8.79 µM); with MRSA N315 it was 1.56 mg/L (≈ 4.39 µM).

In the case of `C=C[C@@](C)(/C=C/c1ccc(OCCCCN(CC)CC)cc1)CCC=C(C)C` [Compound 6], the MIC was over 100 mg/L in the experiment on E. coli ATCC25922; 3.12 mg/L (≈ 8.15 µM) against S. aureus ATCC29213; 0.39 to 3.12 mg/L (≈ 1.02 to 8.15 µM) in the experiment with Gram-positive bacteria; 3.12 mg/L (≈ 8.15 µM) against MRSA NCTC10442; 3.12 mg/L (≈ 8.15 µM) against MRSA N315.

Take `C=C[C@@](C)(/C=C/c1ccc(OCCCN(C)C)cc1)CCC=C(C)C` [Compound 8]: the MIC with E. coli ATCC25922 is over 100 mg/L; against S. aureus ATCC29213, 6.25 mg/L (≈ 18.3 µM); against MRSA NCTC10442 it was 6.25 mg/L (≈ 18.3 µM); against MRSA N315 it was 6.25 mg/L (≈ 18.3 µM).

For `C=C[C@@](C)(/C=C/c1ccc(OCCCN(CC)CC)cc1)CCC=C(C)C` [Compound 9], the MIC is over 100 mg/L in the experiment on E. coli ATCC25922; 3.12 mg/L (≈ 8.46 µM) in the experiment with S. aureus ATCC29213; 0.39 to 3.12 mg/L (≈ 1.06 to 8.46 µM) in the experiment with Gram-positive bacteria; 3.12 mg/L (≈ 8.46 µM) with MRSA NCTC10442; 3.12 mg/L (≈ 8.46 µM) with MRSA N315.

As to `C=C[C@@](C)(/C=C/c1ccc(OCCCCCCCCN(CC)CC)cc1)CCC=C(C)C` [Compound 11], the MIC against E. coli ATCC25922 was over 100 mg/L; against S. aureus ATCC29213 it was 3.12 mg/L (≈ 7.11 µM); in the experiment with Gram-positive bacteria (summary of tables 1 and 2), 0.39 to 3.12 mg/L (≈ 0.887 to 7.11 µM); against MRSA NCTC10442, 1.56 mg/L (≈ 3.55 µM); in the experiment with MRSA N315, 1.56 mg/L (≈ 3.55 µM).

On to `C=C[C@@](C)(/C=C/c1ccc(OCCCCCCCCCCN(CC)CC)cc1)CCC=C(C)C` [Compound 12], for which the MIC with E. coli ATCC25922 was over 100 mg/L; against S. aureus ATCC29213, 12.5 mg/L (≈ 26.7 µM); with Gram-positive bacteria (summary of tables 1 and 2), 0.39 to 3.12 mg/L (≈ 0.834 to 6.68 µM); against MRSA NCTC10442 it was 3.12 mg/L (≈ 6.68 µM); with MRSA N315 it was 3.12 mg/L (≈ 6.68 µM).

With `C=C[C@@](C)(/C=C/c1ccc(OCCCCN)cc1)CCC=C(C)C` [Compound 13], the MIC was 12.5 mg/L (≈ 38.2 µM) in the experiment with E. coli ATCC25922; 1.56 mg/L (≈ 4.76 µM) with S. aureus ATCC29213; 0.39 to 3.12 mg/L (≈ 1.19 to 9.54 µM) in the experiment on Gram-positive bacteria (summary of tables 1 and 2); 1.56 mg/L (≈ 4.76 µM) against MRSA NCTC10442; 0.78 mg/L (≈ 2.38 µM) with MRSA N315.

Regarding `C=C[C@@](C)(/C=C/c1ccc(OCCCCNCC)cc1)CCC=C(C)C` [Compound 14], the MIC in the experiment on E. coli ATCC25922 is 12.5 mg/L (≈ 35.2 µM); against S. aureus ATCC29213 it was 1.56 mg/L (≈ 4.39 µM); in the experiment on Gram-positive bacteria (summary of tables 1 and 2), 0.39 to 3.12 mg/L (≈ 1.1 to 8.79 µM); against MRSA NCTC10442, 1.56 mg/L (≈ 4.39 µM); with MRSA N315, 0.78 mg/L (≈ 2.19 µM).

As for `C=C[C@@](C)(/C=C/c1ccc(OCCCCNCCCC)cc1)CCC=C(C)C` [Compound 15], the MIC against E. coli ATCC25922 was 12.5 mg/L (≈ 32.6 µM); in the experiment with S. aureus ATCC29213 it was 1.56 mg/L (≈ 4.07 µM); in the experiment on Gram-positive bacteria (summary of tables 1 and 2), 0.39 to 3.12 mg/L (≈ 1.02 to 8.15 µM); against MRSA NCTC10442, 1.56 mg/L (≈ 4.07 µM); in the experiment on MRSA N315 it was 1.56 mg/L (≈ 4.07 µM).

Consider `C=C[C@@](C)(/C=C/c1ccc(OCCCCNCCCCCC)cc1)CCC=C(C)C` [Compound 16], for which the MIC against E. coli ATCC25922 is 100 mg/L (≈ 243 µM); against S. aureus ATCC29213 it was 1.56 mg/L (≈ 3.79 µM); in the experiment with Gram-positive bacteria (summary of tables 1 and 2) it was 0.39 to 3.12 mg/L (≈ 0.947 to 7.59 µM); against MRSA NCTC10442, 1.56 mg/L (≈ 3.79 µM); against MRSA N315 it was 0.78 mg/L (≈ 1.89 µM).

Regarding `C=C[C@@](C)(/C=C/c1ccc(OCCCCNCCCCCCCC)cc1)CCC=C(C)C` [Compound 17], the MIC against E. coli ATCC25922 is over 100 mg/L; against S. aureus ATCC29213, 6.25 mg/L (≈ 14.2 µM); in the experiment with MRSA NCTC10442, 3.12 mg/L (≈ 7.11 µM); in the experiment on MRSA N315, 1.56 mg/L (≈ 3.55 µM).

As to `C=C[C@@](C)(/C=C/c1ccc(OCCCCNCCCCCCCCCC)cc1)CCC=C(C)C` [Compound 18], the MIC with E. coli ATCC25922 was over 100 mg/L; against S. aureus ATCC29213 it was 50 mg/L (≈ 107 µM); in the experiment on MRSA NCTC10442 it was 50 mg/L (≈ 107 µM); against MRSA N315 it was 12.5 mg/L (≈ 26.7 µM).

In the case of `C=C[C@@](C)(/C=C/c1ccc(OCCCCN2CCCC2)cc1)CCC=C(C)C` [Compound 20], the MIC is over 100 mg/L with E. coli ATCC25922, 1.56 mg/L (≈ 4.09 µM) against S. aureus ATCC29213, 1.56 mg/L (≈ 4.09 µM) with MRSA NCTC10442 and 1.56 mg/L (≈ 4.09 µM) against MRSA N315.

With `C=C[C@@](C)(/C=C/c1ccc(OCCCCN2CCN(C)CC2)cc1)CCC=C(C)C` [Compound 21], the MIC in the experiment with E. coli ATCC25922 was over 100 mg/L; with S. aureus ATCC29213, 1.56 mg/L (≈ 3.8 µM); in the experiment with MRSA NCTC10442, 3.12 mg/L (≈ 7.61 µM); in the experiment with MRSA N315, 3.12 mg/L (≈ 7.61 µM).
